Measured values taken from patent publication US12351593B2, “Platinum IV complexes with substantially increased antitumor efficacy” (priority 2019, dated 2025).
pIC50: −log10 of the molar value.

Columns and labels:
[1] = test system: cancer cell line PC-3 (prostate carcinoma, ATCC CRL-1435); test: XTT test of antitumor efficacy in vitro, PC-3; assay type: cell-based; conditions: 72 hours exposure
Source text: (§1) XTT method was used in the in vitro experiments. We tested mother platinum (IV) complex TU31 (where X=Cl^−), three new platinum (IV) complexes according to the invention, where X=ClCH2COO^− (complex TU105), F3CCOO^− (complex TU106) and NO3^− (complex TU113), reference platinum (II) complex Oxaliplatin and reference platinum (IV) complex Satraplatin. Two cancer cell lines of heavy-to-treat tumors Capan-2 (pancreas adenocarcinoma) and PC-3 (prostate carcinoma) were used in XTT tests. The obtained results are summarized in the form of IC50 values in the following Table 1:
(§2) Antitumor efficacy of the new Pt(IV) complexes according to the invention was studied on heavy to treat cancer lines of pancreas and prostate. XTT method was used. Results were evaluated in IC50 values and compared with reference Pt(II) complex Oxaliplatin and reference Pt (IV) complex Satraplatin.
(§3) Fresh tumor cell lines were purchased from the Cell Bank to ensure their quality and activities. • a) Capan-2, pancreatic ductal adenocarcinoma, DSMZ, ACC-245 • b) PC-3, prostate carcinoma, ATCC® CRL1435™ Cultivation's Conditions of Tumor Cell Lines: Abbreviation of Used Compounds: • DMSO: dimethyl sulfoxide • PBS: phosphate buffered saline • XTT: 2,3-bis-(2-methoxy-4-nitro-5-sulphophenyl)-2H-tetrazolium-5-carboxanilide salt • PMS: N-methyl-dibenzopyrazinmethylsulfate • FBS: fetal bovine serum • NEAA: non-essential amino acids • L-glu: L-glutamine • DMEM: Dulbecco's Modified Eagle's Medium (SigmaAldrich) • PMS: phenazine methosulfate • Cultivation's conditions: 37° C., 5% CO2 • Growth medium: DMEM, 10% FBS, 2 mM L-glut., NEAA 100× XTT Working Procedure:
(§4) Tested compounds were dissolved in DMSO and diluted by PBS to tested concentration range just before addition to cell lines in wells. PBS was used as a positive control, DMSO in final concentration 20% was used as a negative control. All concentrations of compounds were assayed in triplicates. Each determination was carried out twice and was blinded for experimenter.
(§5) Testing was conducted on a 96-well plate. Dosage of tumor cells was about 2.5. 10^4 cells per well, dosage of growth medium was 100 μl per well. After 24 hours, the growth medium was suck off and 80 μl of fresh growth medium and 20 μl of solution with different concentration of the tested substance were added to wells. After 72 hours, the medium was suck off and 100 μl of a solution of Optimem reagent containing XTT and PMS were added to wells. After another 4 hours, the absorbance was measured at 450 nm (reference was at 630 nm). Results as IC50 were evaluated from the graph of normalized viability of cells plotted against the logarithm of the concentration of the substance.

[2] = test system: cancer cell line Capan-2 (pancreas adenocarcinoma, DSMZ, ACC-245); test: XTT test of antitumor efficacy in vitro, Capan-2; assay type: cell-based; conditions: 72 hours exposure
Source text: as §1, §2, §3, §4, §5

[3] = test system: Capan-2, pancreas adenocarcinoma (DSMZ, ACC-245); test: Antitumor efficacy in vivo, athymic mice model, subcutaneous Capan-2 tumor; parameters: species or system mice (Athymic Nude-FOXN-1^nu); conditions: for Average tumor weight 28 d / TWI % (tumor weight inhibition) / Average tumor volume 1 d / Average tumor volume 4 d / Average tumor volume 8 d / Average tumor volume 11 d / Average tumor volume 15 d / Average tumor volume 18 d / Average tumor volume 22 d / Average tumor volume 25 d / Average tumor volume 29 d / TVI % (tumor volume inhibition): Capan-2, oral dose 20 mg/kg; for Average tumor weight 28 d / TWI % (tumor weight inhibition): 28 d; for Average tumor volume 1 d: day 1; for Average tumor volume 4 d: day 4; for Average tumor volume 8 d: day 8; for Average tumor volume 11 d: day 11; for Average tumor volume 15 d: day 15; for Average tumor volume 18 d: day 18; for Average tumor volume 22 d: day 22; for Average tumor volume 25 d: day 25; for Average tumor volume 29 d: day 29; for TVI % (tumor volume inhibition): end of experiment
Source text: (§6) Two new platinum (IV) complexes TU105 and TU106 from XTT tests were further studied in vivo on athymic mice model with two pancreatic tumors. The platinum (IV) complex Satraplatin and mother complex TU31 were used as reference compounds again. Two heavy-to-treat tumors of pancreas Capan-2 and PaTu8902 were cultivated and then subcutaneously administered to mice at a dose of 1.10^7 cells/mouse. After an increase in the subcutaneous tumors to a volume of about 0.2 cm^3, two doses of respective complexes 2×20 mg/kg were administered orally every 1 week. Control group of mice received no drug. Volume of tumors were continuously measured throughout the experiment. Three weeks after the second dose, mice were sacrificed, tumors removed, weighed and obtained data were evaluated in the form of tumor volume inhibition in % (TVI %) and tumor weight inhibition in % (TWI %), where: TVI %=100−[(TVexp/TVcont)×100] • TVexp=average volume of cured tumors in cm^3 • TVcont=average volume of control tumors in cm^3 TWI %=100−[(TWexp/TWcont)×100] • TWexp=average weight of cured tumors in g • TWcont=average weight of control tumors in g
(§7) In vivo model: Athymic Nude-FOXN-1^nu, 6 mice per group (3 male+3 female)
(§8) • a) Capan-2, pancreatic adenocarcinoma, ductal (DSMZ, ACC-245) • b) […], pancreatic adenocarcinoma, ductal, high metastatic, grade II (DSMZ, ACC-179) Used Pt (IV) Complexes: • a) the reference Pt (IV) complex Satraplatin, detailed specification, see example 4. • b) the mother Pt (IV) complex TU31, detailed specification, see example 4. • c) the new Pt (IV) complex TU105, detailed specification, see example 4. • d) the new Pt (IV) complex TU106, detailed specification, see example 4. Used Doses for Oral Administration:
(§9) The homogenous bulk composition of the each tested Pt (IV) complex (20 mass. %) with Gelucire 50/13 (80 mass. %) was converted to water emulsion before oral administration to mice.
(§10) Cultivation conditions of cancer cell lines: 37° C., 5% CO2, DMEM (Dulbecco's Modified Eagle's Medium, Sigma Aldrich), 10% FBS, (fetal bovine serum), 2 mM L-glutamin, non-essential aminoacids
(§11) Transplantation of cancer cells: A dose 1×10^7 of cells was subcutaneously transplanted to each experimental mouse, then mice were subdivided into individual experimental groups.
(§12) After an increase in the subcutaneous tumors to a volume of about 0.2 cm^3, two doses of respective complexes 2×20 mg/kg were administered orally every 1 week. The control group of mice received no drug. Volume of tumors were continuously measured throughout the experiment. Three weeks after the second dose, mice were sacrificed, tumors removed, weighed and obtained data were evaluated in the form of tumor volume inhibition in % (TVI %) and tumor weight inhibition in % (TWI %), where: TVI %=100−[(TVexp/TVcont)×100] • TVexp=average volume of cured tumors in cm^3 • TVcont=average volume of control tumors in cm^3 TWI %=100−[(TWexp/TWcont)×100] • TWexp=average weight of cured tumors in g • TWcont=average weight of control tumors in g Obtained Results: […]

[4] = test system: PaTu8902, pancreas adenocarcinoma, metastatic, grade II (DSMZ, ACC-179); test: Antitumor efficacy in vivo, athymic mice model, subcutaneous PaTu8902 tumor; parameters: species or system mice (Athymic Nude-FOXN-1^nu); conditions: PaTu8902, oral dose 20 mg/kg; for Average tumor weight 28 d / TWI % (tumor weight inhibition): 28 d; for Average volume of tumor 1 d: day 1; for Average volume of tumor 4 d: day 4; for Average volume of tumor 8 d: day 8; for Average volume of tumor 11 d: day 11; for Average volume of tumor 15 d: day 15; for Average volume of tumor 18 d: day 18; for Average volume of tumor 22 d: day 22; for Average volume of tumor 25 d: day 25; for Average volume of tumor 29 d: day 29; for TVI % (tumor volume inhibition): end of experiment
Source text: as §6, §7, §8, §9, §10, §11, §12

SMILES | pIC50 [1] | pIC50 [2] | Average tumor weight 28 d [3] [g] | TWI % (tumor weight inhibition) [3] [%] | Average tumor volume 1 d [3] [cm^3] | Average tumor volume 4 d [3] [cm^3] | Average tumor volume 8 d [3] [cm^3] | Average tumor volume 11 d [3] [cm^3] | Average tumor volume 15 d [3] [cm^3] | Average tumor volume 18 d [3] [cm^3] | Average tumor volume 22 d [3] [cm^3] | Average tumor volume 25 d [3] [cm^3] | Average tumor volume 29 d [3] [cm^3] | TVI % (tumor volume inhibition) [3] [%] | Average tumor weight 28 d [4] [g] | TWI % (tumor weight inhibition) [4] [%] | Average volume of tumor 1 d [4] [cm^3] | Average volume of tumor 4 d [4] [cm^3] | Average volume of tumor 8 d [4] [cm^3] | Average volume of tumor 11 d [4] [cm^3] | also measured
N[C@@H]1CCCC[C@H]1N.O=C([O-])C(=O)[O-].[Pt+2] [Oxaliplatin, (1R,2R-1,2-cyclohexanediamine-N,N′) (ethanedioato-O,O′) platinum (II), reference compound] | 4.25 | < 4.00 |  |  |  |  |  |  |  |  |  |  |  |  |  |  |  |  |  |  | 
CC(=O)[O][Pt]([NH2])([Cl])([Cl])([NH]C1CCCCC1)[O]C(C)=O [Satraplatin, cis-(ammine, cyclohexylamine)-trans-bis-acetate-cis-dichloride Pt(IV), reference compound] | 4.99 | < 4.52 | 0.711 | 10.3 | 0.21 | 0.23 | 0.30 | 0.39 | 0.47 | 0.56 | 0.66 | 0.77 | 0.90 | 10.0 | 7.245 | 11.5 | 0.21 | 0.50 | 0.99 | 1.94 | Average volume of tumor 15 d [4]: 3.10 cm^3; Average volume of tumor 18 d [4]: 4.80 cm^3; Average volume of tumor 22 d [4]: 6.80 cm^3; Average volume of tumor 25 d [4]: 9.35 cm^3; Average volume of tumor 29 d [4]: 11.90 cm^3; TVI % (tumor volume inhibition) [4]: 12.8%
N.NC12CC3CC(CC(C3)C1)C2.O=C([O-])C(F)(F)F.O=C([O-])C12CC3CC(CC(C3)C1)C2.O=C([O-])C12CC3CC(CC(C3)C1)C2.[Cl-].[Pt+4] [TU106, cis-(ammine,1-adamantylamine)-trans-bis(1-adamantylcarboxylate)-cis-(chloride, trifluoroacetate) Pt (IV)] | 7.15 | 7.70 | 0.166 | 79.1 | 0.21 | 0.21 | 0.23 | 0.24 | 0.25 | 0.26 | 0.28 | 0.29 | 0.31 | 69.0 | 2.317 | 71.7 | 0.21 | 0.21 | 0.37 | 0.60 | anti-tumor efficacy (TWI %), times greater than for reference Satraplatin ([3]; both pancreatic tumors Capan-2 and PaTu8902): about 7 times; Average volume of tumor 15 d [4]: 1.01 cm^3; Average volume of tumor 18 d [4]: 1.60 cm^3; Average volume of tumor 22 d [4]: 2.35 cm^3; Average volume of tumor 25 d [4]: 3.27 cm^3; Average volume of tumor 29 d [4]: 4.20 cm^3; TVI % (tumor volume inhibition) [4]: 69.2%
[NH3+][Pt-2]([Cl])([NH2+]C12CC3CC(CC(C3)C1)C2)([O]C(=O)C12CC3CC(CC(C3)C1)C2)([O]C(=O)C12CC3CC(CC(C3)C1)C2)[O][N+](=O)[O-] [TU113, cis-(ammine,1-adamantylamine)-trans-bis(1-adamantylcarboxylate)-cis-(chloride, nitrate) Pt (IV)] | 6.64 | 6.96 |  |  |  |  |  |  |  |  |  |  |  |  |  |  |  |  |  |  | 
